Where two headings read alike, the source gives them in different places.
Key:
Z-138 = experiment: Long-term proliferation (LTP) assay; format: cell-based; conditions: Homo sapiens
Procedure: FIG. 4 illustrates a representative sample of a long-term proliferation assay performed in the mantle cell lymphoma cell line Z-138. Assays were performed in technical triplicates, reading cell viability over 14 days. Growth curves (top panel) were calculated in Excel. IC50 (bottom panel) and IC90 (not shown) values were calculated in GraphPad Prism using a non-linear regression analysis, fixing the top and bottom of the curves to 100 and 0%, respectively. The IC50 values in the Table are indicated in microM. [table]

[1] = tested on: sDMA methylation in Granta-519 cells; experiment: sDMA western blot, 10 kDa band to total SmD3; format: cell-based; conditions: Homo sapiens
Procedure: (§1) The measurement of the 10 kDa band was used to calculate the methylation IC50 values. […] Concentration-dependent decreases in the 10 kDa band were observed on day 4 in all cell lines tested with representative western blots shown for Z-138 and Maver-1 cell lines (FIG. 1). Levels of the 10 kDa band from the western blots were quantified by densitometry and ratios of 10 kDa band (postulated to be SmD3me2s) to total SmD3 were calculated to determine the IC50s (Table 2, n=1 for all samples).

[2] = tested on: sDMA methylation in Maver-1 cells; experiment: sDMA western blot, 10 kDa band to total SmD3; format: cell-based; conditions: Homo sapiens
Procedure: as §1

[3] = tested on: sDMA methylation in Mino cells; experiment: sDMA western blot, 10 kDa band to total SmD3; format: cell-based; conditions: Homo sapiens
Procedure: as §1

[4] = Body weight loss in Z-138 xenograft study; format: in vivo; conditions: 21 days
Procedure: Data presented in this example were determined after analysis of 21 day samples of mantle cell lymphoma tumors. Cmin PK samples were taken prior to the last dose on day 21. Tumors were excised, weighed and processed for methyl mark. Methyl mark reduction was measured in tumor samples and is shown as percent of vehicle control (POC). Both SYM11 and sDMA Elisa were used to measure methyl mark and the data shown is averaged from 10 animals. Tumor growth inhibition was determined using tumor volume reduction at day 21 expressed as a percent of POC. In vivo inhibition curves were also generated and IC50 values determined. Plasma levels from each group are averaged from 5 animals. […] The average body weight loss (BWL) in all groups was <6%. All doses tested show >50% TGI. […] The average BWL in all groups was <4%. The average BWL in all groups was <8%, except in the 100 mg/kg does group were 4 animals exceeded BWL of 15%.

[5] = tested on: MDM4 splicing in Z138 cells; experiment: MDM4 splicing analysis (PCR); format: cell-based, Human; conditions: Z138 mantle cell lymphoma cells
Procedure: Z138 cells were seeded in 10 cm tissue culture dishes at a density of approximately 3×10^6 cells per dish in a volume of 10 mL IMDM+10% horse serum media. Cells were treated with 200 nM or 1 μM of compound at 0.5% DMSO for 1, 2, or 3 days. Cell pellets were harvested by washing once with PBS, […], centrifuging at 1000×g for 5 minutes, then storing at −80° C. until ready to process.
RNA was extracted from cell pellets. First, pellets were thawed on ice and then quickly resuspended in 500 μL Trizol reagent. Samples were then incubated 2-3 minutes at room temperature and vortexed for 30 sec to completely homogenize the lysate. 50 μL of water and 50 μL of chloroform were added to each Trizol-cell mixture, then each sample was vortexed for 30 sec to mix completely. Samples were loaded onto MaXtract High Density tubes and spun at 14,000 RPM for 5 minutes. The clear supernatant (aqueous phase) from each tube was transferred to a new 2 mL tube and 2× volume of freshly prepared 70% ethanol was added to each sample. Samples were loaded onto RNeasy spin columns (part of Qiagen RNeasy Mini kit). Columns were centrifuged at 9000×g for 15 sec and flow-through was discarded. 350 μL Buffer RW1 was added to each column and samples were centrifuged at […] for 15 sec and flow-through was discarded. […] RNA concentration was analyzed on a Nanodrop. […]

[6] = 96 h, day 4, N = 1, read-out: sDMA Western blot IC50 10 kDa Band
[7] = Table 3, read-out: sDMA Western IC50

| Compound | IC50 (Z-138; 264 h, 11-day treatment, N = 1, read-out: Formula B LTP IC50) | IC90 (Z-138; 264 h, 11-day treatment, N = 1, read-out: Formula B LTP IC90) | IC50 (Z-138; Table 3, read-out: LTP IC50) | IC50 [1, 6] | IC50 [1, 7] | IC50 ([2]; Maver1, 96 h, day 4, N = 1, read-out: sDMA Western blot IC50 10 kDa Band) | IC50 ([2]; Maver1, Table 3, read-out: sDMA Western IC50) | IC50 [3, 6] | IC50 [3, 7] | average body weight loss (BWL) in all groups [4] | MDM4 splicing [5] |
| --- | --- | --- | --- | --- | --- | --- | --- | --- | --- | --- | --- |
| CC(=O)N1CCC(Nc2cc(C(=O)NC[C@H](O)CN3CCc4ccccc4C3)ccn2)CC1 [Formula B] | 3 nM | 20 nM | 2 nM | 0.3 nM | 0.3 nM | 0.1 nM | 0.1 nM | 2 nM | 2 nM | < 6% |  |
| O=C(NC[C@H](O)CN1CCc2ccccc2C1)c1ccnc(NC2CCC2)c1 [Formula C] |  |  |  |  |  |  |  |  |  |  | attenuates |

From US10653693B2, “PRMT5 inhibitors and uses thereof” (Epizyme, Inc., priority 2014, dated 2020)
